Measured values from PMC12120625, “Cytotoxicity and Nanoassembly Characteristics of Aromatic Amides of Oleanolic Acid and Ursolic Acid” (ACS Omega, 2025).
One block for each compound: values may come before it.

Key:
G-361 = assay: Cytotoxicity assay, resazurin, 72 h, G-361; assay type: cell-based; conditions: Homo sapiens, malignant melanoma
Method: (§1) The cytotoxicity screening tests were made with T-lymphoblastic leukemia (CCRF-CEM), breast adenocarcinoma (MCF7), cervical carcinoma (HeLa), and malignant melanoma (G-361) cancer cell lines (the European Collection of Authenticated Cell Cultures, Salisbury, U.K.). Human foreskin fibroblasts (BJ) were used as reference cells, and they were obtained from the American Type Culture Collection (ATCC, Manassas, Virginia). The cells were cultured in DMEM (Dulbecco’s modified Eagle’s medium) or RPMI 1640 (CCRF-CEM). Media used were supplemented with 10% fetal serum, L-glutamine (2 mM), and 1% penicillin–streptomycin mixture (all from Sigma-Aldrich). The cell lines were maintained under standard cell culture conditions at 37 °C and 5% CO2 in a humid environment. Cells were subcultured two or three times a week using the standard trypsinization procedure.
(§2) The cytotoxicity assays were performed according to the standard experimental procedure published earlier. The cell viability was measured after 72 h using resazurin (Sigma-Aldrich). Western blotting and caspase activity assay were performed as described earlier. ,

MCF7 = assay: Cytotoxicity assay, resazurin, 72 h, MCF7; assay type: cell-based; conditions: Homo sapiens, breast adenocarcinoma
Method: as §1, §2

HeLa = assay: Cytotoxicity assay, resazurin, 72 h, HeLa; assay type: cell-based; conditions: Homo sapiens, cervical cancer
Method: as §1, §2

[1] = Cytotoxicity assay, resazurin, 72 h, normal fibroblasts BJ; assay type: cell-based; conditions: human, BJ normal foreskin fibroblasts, normal foreskin fibroblast
Method: as §1, §2

CCRF-CEM = assay: Cytotoxicity assay, resazurin, 72 h, CCRF-CEM; assay type: cell-based; conditions: Homo sapiens, T-lymphoblastic leukemia
Method: as §1, §2

[2] = Nanoassembly by UV spectroscopy and TEM in methanol and water; assay type: physicochemical; conditions: UV spectra and TEM
Method: UV spectra were measured on a Specord 210 spectrometer (Jena Analytical, Germany) in the wavelength range of 200–400 nm. The stock solutions of the studied compounds (9b, 13b, 16b, or 17b; 0.003 mmol) were prepared in methanol (2 mL) at a concentration of 1 mg·mL^–1. A series of water/methanol mixtures were then prepared starting from a water/methanol ratio of 0/100 up to 100/0 in 20% steps. The stock solutions of the studied compounds (0.15 mL) were added separately to each vial containing water/methanol mixtures (3 mL), and the UV spectra were recorded in the wavelength range of 200–400 nm. Aliquots of the stock solutions of the studied compounds (160 μL) were used to prepare samples in the given ratios of water/methanol (0:100 to 100:0 in the 20% steps) mixtures. The UV spectra were recorded in the time 0, 1, 2, 3, and 4 h, followed by a subsequent recording after each 24 h during 7 days (Supporting Information, Figure S33). Note: All target compounds were subjected to this type of investigation; however, self-assembly characteristics were detected by measuring the UV spectra only with 9b, 13b, 16b, and 17b.
Transmission electron microscopy (TEM) was performed with a Tecai G2 Spirit Twin 12 microscope (FEI, Brno, Czech Republic). The samples for TEM were prepared by the fast-drying method, both in methanol and in water. , The studied compounds (2 μL of each one) were dissolved in methanol, and if studies should have been made in water, the compounds were first dissolved in methanol, and then water was added to make the final methanol/water (1:10) solutions. The solutions of compounds in either solvent were made to get the final concentrations of c = 10 mg·mL^–1. Then the solutions were dropped onto a standard carbon-coated copper TEM grid (300 mesh). After 2 min, the rest of the solution was removed by touching the bottom of the grid with a thin strip of filter paper. This fast removal of the solvent, also referred to as “fast-drying” above, is necessary to minimize drying artifacts, as documented in previous studies. , The fast-dried specimens were left to dry completely at an ambient temperature. […] The morphology of selected samples was verified by additional TEM experiments, which employed the samples that were negatively stained with uranyl acetate (UO2Ac2). The negative staining was performed as follows: A small volume (2 μL) of UO2Ac2 (2 wt % of aqueous solution) was dropped on the selected dried specimens from the previous step (i.e., on the dried specimens on the carbon-coated TEM grids). After 1 min, the excess of UO2Ac2 solution was removed (by touching the bottom of the grid with filter paper, like in the previous step). […]

[3] = Solubility in methanol and water; assay type: physicochemical

Structure (SMILES): CC1(C)CC[C@]2(C(=O)O)CC[C@]3(C)C(=CC[C@@H]4[C@@]5(C)CC[C@H](O)C(C)(C)[C@@H]5CC[C@]43C)[C@@H]2C1 [Compound 1a, (3β)-3-hydroxyolean-12-en-28-oic-acid, reference compound]
IC50 (G-361): > 50 µM
IC50 (MCF7): > 50 µM
IC50 (HeLa): > 50 µM
IC50 at 72 h [1]: > 50 µM
IC50 (CCRF-CEM): > 50 µM

Structure (SMILES): C[C@H]1[C@H](C)CC[C@]2(C(=O)O)CC[C@]3(C)C(=CC[C@@H]4[C@@]5(C)CC[C@H](O)C(C)(C)[C@@H]5CC[C@]43C)[C@H]12 [Compound 1b, (3β)-3-hydroxy-urs-12-en-28-oic-acid, reference compound]
IC50 (G-361): 9.7 ± 0.3 µM
IC50 (MCF7): 16.2 ± 0.5 µM
IC50 (HeLa): 12.6 ± 2.7 µM
IC50 at 72 h [1]: 15.6 ± 0.6 µM
IC50 (CCRF-CEM): 13.2 ± 2.7 µM

Structure (SMILES): CC(=O)O[C@H]1CC[C@]2(C)[C@H]3CC=C4[C@@H]5CC(C)(C)CC[C@]5(C(=O)NCC(=O)O)CC[C@@]4(C)[C@]3(C)CC[C@H]2C1(C)C [Compound 3a]
IC50 (G-361): 43.1 ± 1.1 µM
IC50 (MCF7): 46.9 ± 4.4 µM
IC50 (HeLa): 35.8 ± 3.4 µM
IC50 at 72 h [1]: > 50 µM
IC50 (CCRF-CEM): 41 ± 5.9 µM

Structure (SMILES): CC(=O)O[C@H]1CC[C@]2(C)[C@H]3CC=C4[C@@H]5[C@@H](C)[C@H](C)CC[C@]5(C(=O)NCC(=O)O)CC[C@@]4(C)[C@]3(C)CC[C@H]2C1(C)C [Compound 3b]
IC50 (G-361): 38.7 ± 4.9 µM
IC50 (MCF7): 49.7 ± 0.5 µM
IC50 at 72 h [1]: > 50 µM
IC50 (CCRF-CEM): 43.3 ± 5.4 µM

Structure (SMILES): CC(=O)O[C@H]1CC[C@]2(C)[C@H]3CC=C4[C@@H]5CC(C)(C)CC[C@]5(C(=O)NCC(=O)Nc5cc6cccnc6c6ncccc56)CC[C@@]4(C)[C@]3(C)CC[C@H]2C1(C)C [Compound 4a]
IC50 (G-361): 0.4 µM
IC50 (MCF7): 0.7 ± 0.1 µM
IC50 (HeLa): 0.3 µM
IC50 at 72 h [1]: 0.8 ± 0.1 µM
IC50 (CCRF-CEM): 0.6 ± 0.1 µM

Structure (SMILES): CC(=O)O[C@H]1CC[C@]2(C)[C@H]3CC=C4[C@@H]5[C@@H](C)[C@H](C)CC[C@]5(C(=O)NCC(=O)Nc5cc6cccnc6c6ncccc56)CC[C@@]4(C)[C@]3(C)CC[C@H]2C1(C)C [Compound 4b]
IC50 (G-361): 0.5 ± 0.1 µM
IC50 (MCF7): 0.9 ± 0.3 µM
IC50 (HeLa): 0.4 ± 0.1 µM
IC50 at 72 h [1]: 1.5 ± 0.5 µM
IC50 (CCRF-CEM): 0.6 ± 0.2 µM

Structure (SMILES): CC1(C)CC[C@]2(C(=O)NCC(=O)Nc3cc4cccnc4c4ncccc34)CC[C@]3(C)C(=CC[C@@H]4[C@@]5(C)CC[C@H](O)C(C)(C)[C@@H]5CC[C@]43C)[C@@H]2C1 [Compound 5a]
IC50 (G-361): 0.5 ± 0.1 µM
IC50 (MCF7): 0.4 ± 0.1 µM
IC50 (HeLa): 0.6 ± 0.2 µM
IC50 at 72 h [1]: 1.5 ± 0.1 µM
IC50 (CCRF-CEM): 0.3 ± 0.1 µM

Structure (SMILES): C[C@H]1[C@H](C)CC[C@]2(C(=O)NCC(=O)Nc3cc4cccnc4c4ncccc34)CC[C@]3(C)C(=CC[C@@H]4[C@@]5(C)CC[C@H](O)C(C)(C)[C@@H]5CC[C@]43C)[C@H]12 [Compound 5b]
IC50 (G-361): 0.5 ± 0.1 µM
IC50 (MCF7): 0.5 µM
IC50 (HeLa): 0.6 ± 0.1 µM
IC50 at 72 h [1]: 1.6 ± 0.1 µM
IC50 (CCRF-CEM): 0.6 ± 0.1 µM

Structure (SMILES): CC(=O)O[C@H]1CC[C@]2(C)[C@H]3CC=C4[C@@H]5CC(C)(C)CC[C@]5(C(=O)NCC(=O)Nc5ccc(N)cc5)CC[C@@]4(C)[C@]3(C)CC[C@H]2C1(C)C [Compound 7a]
IC50 (G-361): 8.5 ± 0.1 µM
IC50 (MCF7): 12 ± 2.5 µM
IC50 (HeLa): 10.9 ± 1.9 µM
IC50 at 72 h [1]: 18.5 ± 2.6 µM
IC50 (CCRF-CEM): 17.1 ± 1.9 µM

Structure (SMILES): CC(=O)O[C@H]1CC[C@]2(C)[C@H]3CC=C4[C@@H]5[C@@H](C)[C@H](C)CC[C@]5(C(=O)NCC(=O)Nc5ccc(N)cc5)CC[C@@]4(C)[C@]3(C)CC[C@H]2C1(C)C [Compound 7b]
IC50 (G-361): 11.2 ± 0.4 µM
IC50 (MCF7): 14.9 ± 2.2 µM
IC50 (HeLa): 12.5 ± 2.3 µM
IC50 at 72 h [1]: 36.1 ± 4.5 µM
IC50 (CCRF-CEM): 18.1 ± 0.4 µM

nanoassembly [2]: showed no nanoassembly
Structure (SMILES): CC1(C)CC[C@]2(C(=O)NCC(=O)Nc3ccc(N)cc3)CC[C@]3(C)C(=CC[C@@H]4[C@@]5(C)CC[C@H](O)C(C)(C)[C@@H]5CC[C@]43C)[C@@H]2C1 [Compound 9a]
IC50 (G-361): 18.6 ± 2.3 µM
IC50 (MCF7): 17 ± 2.1 µM
IC50 (HeLa): 28.7 ± 1.8 µM
IC50 at 72 h [1]: 37.9 ± 6.1 µM
IC50 (CCRF-CEM): 31.7 ± 2.3 µM

solubility [3]: soluble both in methanol and in water
Structure (SMILES): C[C@H]1[C@H](C)CC[C@]2(C(=O)NCC(=O)Nc3ccc(N)cc3)CC[C@]3(C)C(=CC[C@@H]4[C@@]5(C)CC[C@H](O)C(C)(C)[C@@H]5CC[C@]43C)[C@H]12 [Compound 9b]
IC50 (G-361): 23.3 ± 1 µM
IC50 (MCF7): 16.4 ± 3.7 µM
IC50 (HeLa): 30 ± 2.8 µM
nanoassembly [2]: displayed nanoassembly in methanol and water
IC50 at 72 h [1]: 35.2 ± 1.3 µM
IC50 (CCRF-CEM): 25.8 ± 0.4 µM

Structure (SMILES): CC(=O)O[C@H]1CC[C@]2(C)[C@H]3CC=C4[C@@H]5CC(C)(C)CC[C@]5(C(=O)NCC(=O)Nc5cccc(N)c5)CC[C@@]4(C)[C@]3(C)CC[C@H]2C1(C)C [Compound 11a]
IC50 (G-361): 38.6 ± 1.3 µM
IC50 (MCF7): 39.5 ± 1.5 µM
IC50 (HeLa): 41.9 ± 4.7 µM
IC50 at 72 h [1]: > 50 µM
IC50 (CCRF-CEM): > 50 µM

Structure (SMILES): CC(=O)O[C@H]1CC[C@]2(C)[C@H]3CC=C4[C@@H]5[C@@H](C)[C@H](C)CC[C@]5(C(=O)NCC(=O)Nc5cccc(N)c5)CC[C@@]4(C)[C@]3(C)CC[C@H]2C1(C)C [Compound 11b]
IC50 (G-361): 15 ± 0.8 µM
IC50 (MCF7): 15.8 ± 3.2 µM
IC50 (HeLa): 14.6 ± 2.7 µM
IC50 at 72 h [1]: 44.8 ± 0.6 µM
IC50 (CCRF-CEM): 32.6 ± 8.7 µM

nanoassembly [2]: showed no nanoassembly
Structure (SMILES): CC1(C)CC[C@]2(C(=O)NCC(=O)Nc3cccc(N)c3)CC[C@]3(C)C(=CC[C@@H]4[C@@]5(C)CC[C@H](O)C(C)(C)[C@@H]5CC[C@]43C)[C@@H]2C1 [Compound 13a]
IC50 (G-361): 19.5 ± 2.1 µM
IC50 (MCF7): 14.2 ± 1.3 µM
IC50 (HeLa): 19.9 ± 1 µM
IC50 at 72 h [1]: 45.7 ± 2.2 µM
IC50 (CCRF-CEM): 29.4 ± 4.4 µM

solubility [3]: soluble both in methanol and in water
Structure (SMILES): C[C@H]1[C@H](C)CC[C@]2(C(=O)NCC(=O)Nc3cccc(N)c3)CC[C@]3(C)C(=CC[C@@H]4[C@@]5(C)CC[C@H](O)C(C)(C)[C@@H]5CC[C@]43C)[C@H]12 [Compound 13b]
IC50 (G-361): 14.4 ± 2.9 µM
IC50 (MCF7): 12.8 ± 2.5 µM
IC50 (HeLa): 26.7 ± 2.7 µM
nanoassembly [2]: displayed nanoassembly in methanol and water
IC50 at 72 h [1]: 38.5 ± 0.8 µM
IC50 (CCRF-CEM): 22.3 ± 2.3 µM
